From US20110053916A1 (Vertex Pharmaceuticals Incorporated, priority 2009, published 2011)

molecular target: T1, PknB (Mycobacterium tuberculosis, UniProt P9WI81); experiment: biochemical; parameters: species or system M. tuberculosis; settings: 3 nM PknB, 6 uM GarA, 3 μM ATP, 30 min; competitive tight-binding fit; several symbols in a cell = repeat determinations
T1 construct: made in house
T1 sequence (P9WI81 whole entry): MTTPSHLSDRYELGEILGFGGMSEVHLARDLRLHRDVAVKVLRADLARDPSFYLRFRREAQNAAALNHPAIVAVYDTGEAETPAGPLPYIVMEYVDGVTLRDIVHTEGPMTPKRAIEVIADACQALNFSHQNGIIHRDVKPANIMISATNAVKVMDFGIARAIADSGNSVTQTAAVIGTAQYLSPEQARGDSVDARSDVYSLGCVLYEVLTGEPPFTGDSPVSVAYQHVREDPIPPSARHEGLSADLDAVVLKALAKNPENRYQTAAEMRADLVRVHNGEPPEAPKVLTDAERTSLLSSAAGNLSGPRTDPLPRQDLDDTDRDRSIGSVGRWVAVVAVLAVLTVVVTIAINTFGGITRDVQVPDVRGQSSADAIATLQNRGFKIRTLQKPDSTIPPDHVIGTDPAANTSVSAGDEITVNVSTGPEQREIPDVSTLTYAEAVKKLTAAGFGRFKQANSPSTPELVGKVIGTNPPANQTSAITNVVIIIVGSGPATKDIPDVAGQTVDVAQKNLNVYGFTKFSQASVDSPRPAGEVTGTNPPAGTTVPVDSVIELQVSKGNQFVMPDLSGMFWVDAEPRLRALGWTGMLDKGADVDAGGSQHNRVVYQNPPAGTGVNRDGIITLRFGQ

With `O=C(O)c1cccc(-c2ncc(Cl)c(Nc3cc(C4CC4)[nH]n3)n2)c1` [Compound 142, 3-[5-chloro-4-[(5-cyclopropyl-1H-pyrazol-3-yl)amino]-pyrimidin-2-yl]benzoic acid] the “Ki Values” was “A*, A, B**, B**”.
With `CC(=O)NS(=O)(=O)c1ccc(-c2ncc(Cl)c(Nc3cc(C4CC4)[nH]n3)n2)s1` [Compound 194, N-[[5-[5-chloro-4-[(5-cyclopropyl-1H-pyrazol-3-yl)amino]-pyrimidin-2-yl]-2-thienyl]sulfonyl]acetamide] the “Ki Values” was “A, B**”.
For `c1cc(Nc2cc(C3CC3)[nH]n2)nc(N2CCCCC2)n1` [Compound 64, N-(5-cyclopropyl-1H-pyrazol-3-yl)-2-(1-piperidyl)pyrimidin-4-amine], the “Ki Values” was “A*, B**”.
In the case of `O=S(=O)(NCCO)c1cccc(-c2ncc(Cl)c(Nc3cc(C4CC4)[nH]n3)n2)c1` [Compound 95, 3-[5-chloro-4-[(5-cyclopropyl-1H-pyrazol-3-yl)amino]-pyrimidin-2-yl]-N-(2-hydroxyethyl)benzenesulfonamide], the “Ki Values” is reported as “A*, A”.
With `C#Cc1cnc(-c2ccc([C@@H](O)CCC)s2)nc1Nc1cc(C2CC2)n[nH]1` (stereo in doubt) [Compound 211, 1-[5-[4-[(5-cyclopropyl-2H-pyrazol-3-yl)amino]-5-ethynyl-pyrimidin-2-yl]-2-thienyl]butan-1-ol] the “Ki Values” was “A**, A*, A*”.
With `C#Cc1cnc(-c2ccc(C(=O)NCCNC(C)=O)s2)nc1Nc1cc(C2CC2)n[nH]1` [Compound 206, N-(2-acetamidoethyl)-5-(4-(5-cyclopropyl-1H-pyrazol-3-ylamino)-5-ethynylpyrimidin-2-yl)thiophene-2-carboxamide] the “Ki Values” was “B**, B**, B*”.

same assay, conditions: 3 nM PknB, 6 uM GarA, 3 μM ATP, 30 min; competitive tight-binding fit; several symbols in a cell = repeat determinations; read-out: Ki Values

`O=C(O)c1cccc(Nc2ncc(Cl)c(Nc3cc(C4CC4)[nH]n3)n2)c1` [Compound 73, 3-[[5-chloro-4-[(5-cyclopropyl-1H-pyrazol-3-yl)amino]-pyrimidin-2-yl]amino]benzoic acid] and `N#Cc1cccc(Nc2ncc(Cl)c(Nc3cc(C4CC4)[nH]n3)n2)c1` [Compound 89, 3-[[5-chloro-4-[(5-cyclopropyl-1H-pyrazol-3-yl)amino]-pyrimidin-2-yl]amino]benzonitrile] fall in the same range of Ki: 100 to 500 nM for the first, 100 to 500 nM for the second.

First: Clc1cnc(Nc2ccc3[nH]ncc3c2)nc1Nc1cc(C2CC2)[nH]n1 [Compound 62, 5-chloro-N4-(5-cyclopropyl-1H-pyrazol-3-yl)-N2-(1H-indazol-5-yl)pyrimidine-2,4-diamine]
Second: c1cc(Nc2cc(C3CC3)[nH]n2)nc(Nc2ccc3[nH]ncc3c2)n1 [Compound 13, N4-(5-cyclopropyl-1H-pyrazol-3-yl)-N2-(1H-indazol-5-yl)pyrimidine-2,4-diamine]
The Ki of the first is higher: > 4000 nM for the first, 10 to 50 nM for the second. The second binds more tightly here.

Compared with `NS(=O)(=O)c1ccc(-c2nc(Nc3cc(C4CC4)n[nH]3)ncc2Cl)s1` [Compound 314, 5-[5-chloro-2-[(5-cyclopropyl-2H-pyrazol-3-yl)amino]-pyrimidin-4-yl]thiophene-2-sulfonamide], `NS(=O)(=O)c1ccc(-c2ncc(Cl)c(Nc3cc(C4CCNC4)n[nH]3)n2)s1` (stereo not shown) [Compound 263, 5-[5-chloro-4-[(5-pyrrolidin-3-yl-2H-pyrazol-3-yl)amino]-pyrimidin-2-yl]thiophene-2-sulfonamide] is higher in Ki: 1 to 10 nM for the first, > 4000 nM for the second. The first binds more tightly here.

`N#Cc1ccc(-c2ncc(Br)c(Nc3cc(C4CC4)[nH]n3)n2)s1` [Compound 176, 5-[5-bromo-4-[(5-cyclopropyl-1H-pyrazol-3-yl)amino]-pyrimidin-2-yl]thiophene-2-carbonitrile] and `NS(=O)(=O)c1ccc(-c2ncc(F)c(Nc3cc(C4CC4)[nH]n3)n2)s1` [Compound 52, 5-(4-(5-cyclopropyl-1H-pyrazol-3-ylamino)-5-fluoropyrimidin-2-yl)thiophene-2-sulfonamide] fall in the same range of Ki: 1 to 10 nM for the first, 1 to 10 nM for the second.

`C#Cc1cnc(-c2ccc(C(=O)C(=O)OCC)s2)nc1Nc1cc(C2CC2)[nH]n1` [Compound 202, ethyl 2-[5-[4-[(5-cyclopropyl-1H-pyrazol-3-yl)amino]-5-ethynyl-pyrimidin-2-yl]-2-thienyl]-2-oxo-acetate] and `O=C(O)C(=O)c1ccc(-c2ncc(Cl)c(Nc3cc(C4CC4)[nH]n3)n2)s1` [Compound 190, 2-(5-(5-chloro-4-(5-cyclopropyl-1H-pyrazol-3-ylamino)pyrimidin-2-yl)thiophen-2-yl)-2-oxoacetic acid] fall in the same range of Ki: 10 to 50 nM for the first, 10 to 50 nM for the second.

First: CC(=O)Nc1cnc(-c2ccccc2)nc1Nc1cc(C2CC2)n(C(C)=O)n1 [Compound 3, N-[4-[(1-acetyl-5-cyclopropyl-pyrazol-3-yl)amino]-2-phenyl-pyrimidin-5-yl]acetamide]
Second: COC/C=C/c1cnc(-c2ccccc2)nc1Nc1cc(C2CC2)[nH]n1 [Compound 39, (E)-N-(5-cyclopropyl-1H-pyrazol-3-yl)-5-(3-methoxyprop-1-enyl)-2-phenylpyrimidin-4-amine]
The Ki of the first is higher: > 4000 nM for the first, 500 to 1000 nM for the second. The second binds more tightly here.

First: Cc1cnc(-c2ccc(C(O)CO)s2)nc1Nc1cc(C2CC2)[nH]n1 (stereo not shown) [Compound 326, 1-[5-[4-[(5-cyclopropyl-1H-pyrazol-3-yl)amino]-5-methyl-pyrimidin-2-yl]-2-thienyl]ethane-1,2-diol]
Second: C=Cc1cnc(-c2ccc(S(N)(=O)=O)s2)nc1Nc1cc(C2CC2)[nH]n1 [Compound 209, 5-(4-(5-Cyclopropyl-1H-pyrazol-3-ylamino)-5-vinylpyrimidin-2-yl)thiophene-2-sulfonamide]
The Ki of the first is higher: 10 to 50 nM for the first, 1 to 10 nM for the second. The second binds more tightly here.

First: COCc1cnc(N2CCC(N3CCCCC3)CC2)nc1Nc1cc(C2CC2)[nH]n1 [Compound 71, N-(5-cyclopropyl-1H-pyrazol-3-yl)-5-(methoxymethyl)-2-[4-(1-piperidyl)-1-piperidyl]-pyrimidin-4-amine]
Second: CCc1cnc(N2CCN(C)CC2)nc1Nc1cc(C2CC2)[nH]n1 [Compound 46, N-(5-cyclopropyl-1H-pyrazol-3-yl)-5-ethyl-2-(4-methylpiperazin-1-yl)-pyrimidin-4-amine]
The Ki of the first is lower: 1000 to 2000 nM for the first, > 4000 nM for the second.

Compared with `NS(=O)(=O)c1ccc(-c2ncc(Cl)c(Nc3cc(C4CCN(C(=O)OCc5ccccc5)C4)n[nH]3)n2)s1` (stereo not shown) [Compound 262, benzyl 3-[5-[[5-chloro-2-(5-sulfamoyl-2-thienyl)-pyrimidin-4-yl]amino]-1H-pyrazol-3-yl]pyrrolidine-1-carboxylate], `NS(=O)(=O)c1ccc(-c2ncc(Cl)c(Nc3cc(-c4ccccc4)[nH]n3)n2)s1` [Compound 234, 5-[5-chloro-4-[(5-phenyl-1H-pyrazol-3-yl)amino]-pyrimidin-2-yl]thiophene-2-sulfonamide] is higher in Ki: 1000 to 2000 nM for the first, > 4000 nM for the second. The first binds more tightly here.

First: CC(C)(C)NS(=O)(=O)c1ccc(-c2ncc(NC=O)c(Nc3cc(C4CC4)[nH]n3)n2)s1 [Compound 253, N-[4-[(5-cyclopropyl-1H-pyrazol-3-yl)amino]-2-[5-(tert-butylsulfamoyl)-2-thienyl]-pyrimidin-5-yl]formamide]
Second: NCCNS(=O)(=O)c1ccc(-c2ncc(Cl)c(Nc3cc(C4CC4)[nH]n3)n2)s1 [Compound 75, N-(2-aminoethyl)-5-(5-chloro-4-(5-cyclopropyl-1H-pyrazol-3-ylamino)pyrimidin-2-yl)thiophene-2-sulfonamide]
The Ki of the first is higher: 100 to 500 nM for the first, 1 to 10 nM for the second. The second binds more tightly here.

`CS(=O)(=O)NCc1ccc(-c2ncc(Cl)c(Nc3cc(C4CC4)n[nH]3)n2)s1` [Compound 280, N-[[5-[5-chloro-4-[(5-cyclopropyl-2H-pyrazol-3-yl)amino]-pyrimidin-2-yl]-2-thienyl]methyl]methanesulfonamide] and `C#Cc1cnc(-c2ccc([C@@H](O)C(C)C)s2)nc1Nc1cc(C2CC2)n[nH]1` (stereo in doubt) [Compound 210, 1-[5-[4-[(5-cyclopropyl-2H-pyrazol-3-yl)amino]-5-ethynyl-pyrimidin-2-yl]-2-thienyl]-2-methyl-propan-1-ol] fall in the same range of Ki: 10 to 50 nM for the first, 10 to 50 nM for the second.

First: CC(C)(C)NS(=O)(=O)c1cccc(-c2ncc(O)c(Nc3cc(C4CC4)n[nH]3)n2)c1 [Compound 102, N-tert-butyl-3-(4-(3-cyclopropyl-1H-pyrazol-5-ylamino)-5-hydroxypyrimidin-2-yl)benzenesulfonamide]
Second: CN(C)CCNS(=O)(=O)c1cccc(-c2ncc(Cl)c(Nc3cc(C4CC4)[nH]n3)n2)c1 [Compound 97, 3-[5-chloro-4-[(5-cyclopropyl-1H-pyrazol-3-yl)amino]-pyrimidin-2-yl]-N-(2-dimethylaminoethyl)benzenesulfonamide]
The Ki of the first is higher: 50 to 100 nM for the first, 10 to 50 nM for the second. The second binds more tightly here.

First: C#Cc1cnc(N2CCCCC2C(=O)O)nc1Nc1cc(C2CC2)n[nH]1 (stereo not shown) [Compound 245, 1-[4-[(5-cyclopropyl-2H-pyrazol-3-yl)amino]-5-ethynyl-pyrimidin-2-yl]piperidine-2-carboxylic acid]
Second: C#Cc1cnc(-c2ccc(S(=O)(=O)CCCNC(C)=O)s2)nc1Nc1cc(C2CC2)[nH]n1 [Compound 229, N-(3-(5-(4-(5-cyclopropyl-1H-pyrazol-3-ylamino)-5-ethynylpyrimidin-2-yl)thiophen-2-ylsulfonyl)propyl)acetamide]
The Ki of the first is higher: > 4000 nM for the first, 10 to 50 nM for the second.

`NS(=O)(=O)c1cccc(Nc2nccc(Nc3cc(C4CC4)n[nH]3)n2)c1` [Compound 82] and `COc1ccc(-c2ncc(Cl)c(Nc3cc(C4CC4)[nH]n3)n2)cc1S(N)(=O)=O` [Compound 161, 5-[5-chloro-4-[(5-cyclopropyl-1H-pyrazol-3-yl)amino]-pyrimidin-2-yl]-2-methoxy-benzenesulfonamide] fall in the same range of Ki: 50 to 100 nM for the first, 50 to 100 nM for the second.

Compared with `Clc1cnc(-c2ccccn2)nc1Nc1cc(C2CC2)[nH]n1` [Compound 182, 5-chloro-N-(5-cyclopropyl-1H-pyrazol-3-yl)-2-(pyridin-2-yl)pyrimidin-4-amine], `C[C@@H]1C[C@H]1c1cc(Nc2nc(-c3ccc(S(N)(=O)=O)s3)ncc2Cl)n[nH]1` (relative stereo) [Compound 320, 5-(5-chloro-4-(5-(trans-2-methylcyclopropyl)-1H-pyrazol-3-ylamino)pyrimidin-2-yl)thiophene-2-sulfonamide] is lower in Ki: 1000 to 2000 nM for the first, 1 to 10 nM for the second. The second binds more tightly here.

`NS(=O)(=O)c1ccc(-c2ncc(Cl)c(Nc3cc[nH]n3)n2)s1` [Compound 221, 5-[5-chloro-4-(1H-pyrazol-3-ylamino)-pyrimidin-2-yl]thiophene-2-sulfonamide] gave a Ki of 1 to 10 nM.
